A word on the IC50: it is the concentration needed to halve the response being measured.

The values below come from patent US20170027893A1, “THIOSEMICARBAZONES INHIBITORS OF LYSOPHOSPHATIDIC ACID ACYLTRANSFERASE AND USES THEREOF” (H. LEE CANCER CENTER AND RESEARCH INSTITUTE, INC., priority 2014, published 2017).

The structures appear in SMILES notation. Some results are limits rather than exact numbers.

For one assay, the system named is MiaPaCa2 human pancreatic cancer cells. The experiment in a line: inhibition of proliferation, Alamar blue, 72 h. It is filed as cell-based.
Conditions: not given
Here is the method: The ability of selected compounds from the libraries 6, 15 and 19 to inhibit the growth of MiaPaCa2 human pancreatic cancer cells was investigated. Human pancreatic carcinoma (MiaPaCa2) cells were plated at a low confluency into 96-well tissue culture-treated plates. After allowing cells to attach and grow overnight at 37 degrees in a 5% CO2 incubator, growth medium was replaced with fresh medium (100 μl/well) containing compounds in a range from 0.1-100 μM. All treatments were made from 500× stock solutions in DMSO, and the control wells received an equivalent amount of DMSO in medium. After 72 hours of growth in the presence of the compounds, Alamar blue was added to the wells according to the manufacturer's instructions (Life Technologies, Grand Island, N.Y.) and cells were incubated in its presence for 2-3 hours. Fluorescence readings were performed using a Biotek Synergy II plate reader with […] wavelengths of 530/590 nm. […] Calculated IC50s are representative of at least three independent experiments.
Background: Alamar Blue is a resazurin reagent that responds to reducing activity.
As for `C=CCc1cc(CCCC)cc(C(C)=NNC(N)=S)c1O` [Compound 19h], the IC50 was determined as 12 ± 3.3 µM.

Consider `C=CCc1cc(Cl)cc(C(C)=NNC(N)=S)c1O` [Compound 19a], for which the IC50 amounted to 14 ± 5.5 µM.

The assay is the same for the next values; noted with them: Homo sapiens, MIA PaCa-2.
For the compound `C=CCc1cc(-c2ccc(Cl)cc2Cl)cc(C(C)=NNC(N)=S)c1O` [Compound 19r], the IC50 was determined as 7.6 ± 0.9 µM.

Regarding `C=CCc1cc(-c2cccc(C#N)c2)cc(C(C)=NNC(N)=S)c1O` [Compound 19v], the concentration for half-maximal inhibition (IC50) was determined as 7.8 ± 2.7 µM.

A further assay deals with T1, LPAAT-β (Homo sapiens, UniProt O15120).
T1 sequence (O15120 24-278): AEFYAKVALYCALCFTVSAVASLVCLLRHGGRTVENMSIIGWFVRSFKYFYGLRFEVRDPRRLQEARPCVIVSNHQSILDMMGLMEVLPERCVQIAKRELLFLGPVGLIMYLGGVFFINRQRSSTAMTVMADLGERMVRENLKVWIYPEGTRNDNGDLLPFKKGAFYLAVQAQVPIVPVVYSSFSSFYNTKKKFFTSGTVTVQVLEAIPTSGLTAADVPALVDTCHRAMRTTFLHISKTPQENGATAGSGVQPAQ
Briefly: DTNB (Ellman's reagent) 96-well plate screening assay of LPAAT-β enzymatic activity. In kind it is biochemical. Also on record: The assay utilizes full-length, recombinant, baculovirus-produced LPAAT-β; made in house.
Conditions: not given
Here is the method:
Screening with a modified screening assay in 96-well plate format for LPAAT-β enzymatic activity was performed as reported by Aguado and Campbell (Aguado et al., Characterization of a human lysophosphatidic acid acyltransferase that is encoded by a gene located in the class III region of the human major histocompatibility complex. J. Biol. Chem. 1998, 273, 4096-105).
The assay utilizes full-length, recombinant, baculovirus-produced LPAAT-β, which catalyzes the production of dioleoyl-[…] from the enzymatic substrates oleoyl-lysophosphatidic acid (LPA) and oleoyl-coenzyme A (Scheme 2). The ability of the compound to inhibit the LPAAT-β activity was assayed by the colorimetric measurement of the reaction of the free thiol group of the released coenzyme A with Ellman's reagent [5,5′-dithiobis-(2-nitrobenzoic acid) or DTNB] (Riener et al., Quick measurement of protein sulfhydryls with Ellman's reagent and with 4,4′-dithiodipyridine. Anal. Bioanal. Chem. 2002, 373, 266-76). […] A hit identified from the Life Chemicals library 6a (IC50 100 nM) was selected for further investigation.
For the compound `C=CCc1cccc(/C=N/NC(N)=O)c1O` [Compound 6w], the “LPAAT-β inhibitory activity in words (assay not given)” value was “inactive”.

For the compound `C=CCc1cccc(C=NN=c2scc(-c3ccccc3)n2C)c1O` [Compound 11a], the “LPAAT-β inhibitory activity in words (assay not given)” value was “inactive”.

`NC(=S)NN=Cc1ccccc1O` [Compound 6b]: the “LPAAT-β inhibitory activity in words (assay not given)” value was “inactive”.

On to `NNC(N)=S` [Thiosemicarbazide], for which the “LPAAT-β inhibitory activity in words (assay not given)” value is “not by itself active”.

Take `CCCc1cccc(C=NN=c2scc(-c3ccccc3)n2C)c1O` [Compound 11b]: the “LPAAT-β inhibitory activity in words (assay not given)” value is “inactive”.

In the case of `NC(=S)N/N=C/c1cccc2c1oc1ccccc12` [Compound 6t], the “LPAAT-β inhibitory activity in words (assay not given)” value was “inactive”.

With `CCCc1cccc(C=NNC(=S)NC(=O)c2ccccc2)c1O` [Compound 10c], the “LPAAT-β inhibitory activity in words (assay not given)” value was “inactive”.

Consider `NC(=S)NN=Cc1cccc(O)c1O` [Compound 6c], for which the “LPAAT-β inhibitory activity in words (assay not given)” value was “inactive”.

Consider `CCOc1cccc(C=NNC(N)=S)c1O` [Compound 6d], for which the “LPAAT-β inhibitory activity in words (assay not given)” value is “inactive”.

The same assay, now with this note: Table 4; read-out: IC50 (μm) (DTNB assay) (converted).
With `C=CCc1cc(F)cc(C(C)=NNC(N)=S)c1O` [Compound 19b], the 50% inhibitory concentration (IC50) is 0.24 µM.

`C=CCc1cc(-c2ccc(Cl)cc2Cl)cc(C(C)=NNC(N)=S)c1O` [Compound 19r]: the IC50 is 0.52 ± 0.23 µM.

Turning to `C=CCc1cc(CCCCCC)cc(C(C)=NNC(N)=S)c1O` [Compound 19k], the half-inhibitory concentration (IC50) is 0.24 µM.

`C=CCc1cc(C(C)C)cc(C(C)=NNC(N)=S)c1O` [Compound 19g]: the IC50 was 0.16 µM.

Regarding `C=CCc1cc(CCCC)cc(C(C)=NNC(N)=S)c1O` [Compound 19h], the 50% inhibitory concentration (IC50) is 0.16 µM.

Turning to `C=CCc1cc(CC)cc(C(C)=NNC(N)=S)c1O` [Compound 19e], the concentration for half-maximal inhibition (IC50) is 0.2 µM.

Consider `C=CCc1cc(CC(=O)OC)cc(C(C)=NNC(N)=S)c1O` [Compound 19m], for which the IC50 was 1.15 µM.

Regarding `C=CCc1cc(Cl)cc(C(C)=NNC(N)=S)c1O` [Compound 19a], the half-maximal inhibitory concentration (IC50) was 0.17 ± 0.09 µM.

For `C=CCc1cc(-c2ccc(F)cc2)cc(C(C)=NNC(N)=S)c1O` [Compound 19q], the IC50 is 0.29 ± 0.06 µM.

Take `C=CCc1cc(C(C)(C)C)cc(C(C)=NNC(N)=S)c1O` [Compound 19i]: the 50% inhibitory concentration (IC50) is 0.31 µM.

As for `C=CCc1cc(-c2cccc(C#N)c2)cc(C(C)=NNC(N)=S)c1O` [Compound 19v], the IC50 is 0.28 ± 0.02 µM.

Turning to `C=CCc1cc(C#N)cc(C(C)=NNC(N)=S)c1O` [Compound 19d], the half-maximal inhibitory concentration (IC50) is 0.46 µM.

For the compound `C=CCc1cc(-c2ccc(C#N)cc2)cc(C(C)=NNC(N)=S)c1O` [Compound 19u], the concentration for half-maximal inhibition (IC50) was 0.4 ± 0.19 µM.

On to `C=CCc1cc(CCC)cc(C(C)=NNC(N)=S)c1O` [Compound 19f], for which the IC50 is 0.27 µM.

For `C=CCc1cc(Br)cc(C(C)=NNC(N)=S)c1O` [Compound 19c], the 50% inhibitory concentration (IC50) was 0.1 µM.

The assay is the same for the next values; noted with them: read-out: IC50 (μM) (DTNB assay) (converted).
With `C=CCc1cc(-c2ccc(Cl)cc2Cl)cc(C(C)=NNC(N)=S)c1O` [Compound 19r], the IC50 is 0.52 ± 0.23 µM.

As to `C=CCc1cc(CCCCCC)cc(C(C)=NNC(N)=S)c1O` [Compound 19k], the 50% inhibitory concentration (IC50) was 17 ± 7.3 µM.

As to `C=CCc1cc(CCCC)cc(C(C)=NNC(N)=S)c1O` [Compound 19h], the half-maximal inhibitory concentration (IC50) is 0.16 ± 0.07 µM.

In the case of `C=CCc1cccc(C=NN=c2scc(-c3ccccc3)n2C)c1O` [Compound 11a], the concentration for half-maximal inhibition (IC50) is above 100 µM.

As to `C=CCc1cc(Cl)cc(C(C)=NNC(N)=S)c1O` [Compound 19a], the IC50 was 0.17 ± 0.09 µM.

In the case of `NC(=S)NN=Cc1ccccc1O` [Compound 6b], the IC50 was above 100 µM.

`C=CCc1cc(-c2cccc(C#N)c2)cc(C(C)=NNC(N)=S)c1O` [Compound 19v]: the IC50 was 0.28 ± 0.02 µM.

Regarding `CCCc1cccc(C=NN=c2scc(-c3ccccc3)n2C)c1O` [Compound 11b], the concentration for half-maximal inhibition (IC50) was above 100 µM.

Consider `C=CCc1cc(-c2ccc(C#N)cc2)cc(C(C)=NNC(N)=S)c1O` [Compound 19u], for which the IC50 was 0.36 ± 0.1 µM.

With `CCCc1cccc(C=NNC(=S)NC(=O)c2ccccc2)c1O` [Compound 10c], the IC50 was above 100 µM.

As for `NC(=S)NN=Cc1cccc(O)c1O` [Compound 6c], the IC50 was above 100 µM.

Regarding `CCOc1cccc(C=NNC(N)=S)c1O` [Compound 6d], the IC50 is above 100 µM.

The next assay concerns the target T1, LPAAT-β. Briefly: secondary thin layer chromatography (TLC) assay measuring fluorescent PA. In kind it is biochemical. Further details: The assay utilizes full-length, recombinant, baculovirus-produced LPAAT-β; made in house.
Conditions: not given
Take `C=CCc1cc(-c2ccc(Cl)cc2Cl)cc(C(C)=NNC(N)=S)c1O` [Compound 19r]: the 50% inhibitory concentration (IC50) was 2.1 ± 0.9 µM.

As for `C=CCc1cc(CCCCCC)cc(C(C)=NNC(N)=S)c1O` [Compound 19k], the half-inhibitory concentration (IC50) worked out at 3.2 ± 1.6 µM.

On to `C=CCc1cc(CCCC)cc(C(C)=NNC(N)=S)c1O` [Compound 19h], for which the IC50 is 1.4 ± 1.1 µM.

Take `C=CCc1cccc(C=NN=c2scc(-c3ccccc3)n2C)c1O` [Compound 11a]: the IC50 was above 10 µM.

On to `C=CCc1cc(Cl)cc(C(C)=NNC(N)=S)c1O` [Compound 19a], for which the IC50 stood at 3.3 ± 1.2 µM.

As for `NC(=S)NN=Cc1ccccc1O` [Compound 6b], the IC50 was above 100 µM and the “LPAAT-β inhibitory activity in words (TLC assay)” value is “inactive”.

On to `C=CCc1cc(-c2cccc(C#N)c2)cc(C(C)=NNC(N)=S)c1O` [Compound 19v], for which the IC50 is above 10 µM.

With `CCCc1cccc(C=NN=c2scc(-c3ccccc3)n2C)c1O` [Compound 11b], the concentration for half-maximal inhibition (IC50) is above 10 µM.

Regarding `NC(=S)NN=Cc1cccc(O)c1O` [Compound 6c], the IC50 was above 10 µM.

In the case of `CCOc1cccc(C=NNC(N)=S)c1O` [Compound 6d], the IC50 is above 10 µM.

The assay is the same for the next values; noted with them: Table 4.
`C=CCc1cc(F)cc(C(C)=NNC(N)=S)c1O` [Compound 19b]: the IC50 was 24 µM.

Consider `C=CCc1cc(-c2ccc(Cl)cc2Cl)cc(C(C)=NNC(N)=S)c1O` [Compound 19r], for which the IC50 turned out to be 2.1 ± 0.9 µM.

With `C=CCc1cc(CCCCCC)cc(C(C)=NNC(N)=S)c1O` [Compound 19k], the half-inhibitory concentration (IC50) is 5.2 µM.

For the compound `C=CCc1cc(C(C)C)cc(C(C)=NNC(N)=S)c1O` [Compound 19g], the 50% inhibitory concentration (IC50) was 1.4 µM.

For the compound `C=CCc1cc(CCCC)cc(C(C)=NNC(N)=S)c1O` [Compound 19h], the concentration for half-maximal inhibition (IC50) was 1.4 µM.

Turning to `C=CCc1cc(CC)cc(C(C)=NNC(N)=S)c1O` [Compound 19e], the concentration for half-maximal inhibition (IC50) is 1.9 µM.

`C=CCc1cc(Cl)cc(C(C)=NNC(N)=S)c1O` [Compound 19a]: the IC50 was found to be 3.3 ± 1.2 µM.

Consider `C=CCc1cc(-c2ccc(F)cc2)cc(C(C)=NNC(N)=S)c1O` [Compound 19q], for which the IC50 came to 5.1 ± 3 µM.

On to `C=CCc1cc(C(C)(C)C)cc(C(C)=NNC(N)=S)c1O` [Compound 19i], for which the IC50 was 1.3 µM.

As for `C=CCc1cc(-c2cccc(C#N)c2)cc(C(C)=NNC(N)=S)c1O` [Compound 19v], the IC50 was above 10 µM.

Turning to `C=CCc1cc(C#N)cc(C(C)=NNC(N)=S)c1O` [Compound 19d], the concentration for half-maximal inhibition (IC50) is above 10 µM.

Regarding `C=CCc1cc(-c2ccc(C#N)cc2)cc(C(C)=NNC(N)=S)c1O` [Compound 19u], the IC50 came to 1 ± 0.9 µM.

Consider `C=CCc1cc(CCC)cc(C(C)=NNC(N)=S)c1O` [Compound 19f], for which the IC50 is 2.4 µM.

Take `C=CCc1cc(Br)cc(C(C)=NNC(N)=S)c1O` [Compound 19c]: the IC50 is 4.1 µM.
